As usually defined, the DC50 is the midpoint of the concentration-degradation curve.

Here are results for 16 molecules from US20240190880A1 (THE REGENTS OF THE UNIVERSITY OF MICHIGAN, priority 2021, published 2024).

The first experiment addresses T1, ER (Homo sapiens, UniProt P03372).
T1 construct: host or cells: T47D and MCF7 human breast cancer cells
T1 sequence (P03372 1-595): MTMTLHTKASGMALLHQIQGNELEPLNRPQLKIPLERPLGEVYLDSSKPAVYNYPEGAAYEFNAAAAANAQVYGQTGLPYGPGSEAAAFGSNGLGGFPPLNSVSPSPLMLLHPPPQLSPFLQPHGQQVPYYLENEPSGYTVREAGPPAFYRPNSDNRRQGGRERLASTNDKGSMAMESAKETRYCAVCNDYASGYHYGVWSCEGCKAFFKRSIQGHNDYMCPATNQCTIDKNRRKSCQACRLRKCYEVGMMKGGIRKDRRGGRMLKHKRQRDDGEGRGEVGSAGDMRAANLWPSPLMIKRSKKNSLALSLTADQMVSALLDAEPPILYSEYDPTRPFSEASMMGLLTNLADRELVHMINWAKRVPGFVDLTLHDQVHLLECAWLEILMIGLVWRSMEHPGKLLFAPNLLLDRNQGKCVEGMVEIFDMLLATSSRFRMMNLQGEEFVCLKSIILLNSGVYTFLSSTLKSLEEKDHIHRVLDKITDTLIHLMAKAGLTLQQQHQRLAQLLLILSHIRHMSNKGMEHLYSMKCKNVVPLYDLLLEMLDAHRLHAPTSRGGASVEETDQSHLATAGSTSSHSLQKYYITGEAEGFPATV
Put plainly: ER degradation activity, in-cell western blot analysis in T47D cells. Type of experiment: cell-based. Conditions: 16 hours, Table A does not say which cell line (T47D or MCF7), read-out: Potency (DC50). The method, boiled down:
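Read-out is near-infrared fluorescence from an in-cell western, expressed as ER percentage relative to untreated and DMSO controls taken as 100%. T47D breast cancer cells received compound for 16 h in 0.5% DMSO.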
On to `C[C@@H]1Cc2c([nH]c3ccccc23)[C@@H](c2ccc(N3CCC4(CCN(C(=O)CN5Cc6cc7c(cc6C5)C(=O)N(C5CCC(=O)NC5=O)C7=O)CC4)CC3)nc2)N1CC(F)F` (stereo partly drawn) [E 281, 6-(2-(9-(5-((1R,3R)-2-(2,2-difluoroethyl)-3-methyl-2,3,4,9-tetrahydro-1H-pyrido[3,4-b]indol-1-yl)pyridin-2-yl)-3,9-diazaspiro[5.5]undecan-3-yl)-2-oxoethyl)-2-(2,6-dioxopiperidin-3-yl)-6,7-dihydropyrrolo[3,4-f]isoindole-1,3(2H,5H)-dione], for which the DC50 was 10 to 100 nM.
On the same count and under the same terms, with `O=C1CCC(N2C(=O)c3cc4c(cc3C2=O)CN(CC(=O)N2CCC3(CC2)CCN(c2ccc([C@@H]5c6ccc(O)cc6CC[C@@H]5c5ccccc5)nc2)CC3)C4)C(=O)N1` (mixture of isomers) [E 305, Rac-2-(2,6-dioxopiperidin-3-yl)-6-(2-(9-(6-((1S,2S)-6-hydroxy-2-phenyl-1,2,3,4-tetrahydronaphthalen-1-yl)pyridin-3-yl)-3,9-diazaspiro[5.5]undecan-3-yl)-2-oxoethyl)-6,7-dihydropyrrolo[3,4-f]isoindole-1,3(2H,5H)-dione] the figure was greater than 100 nM.
In the case of `C[C@@H]1Cc2c([nH]c3ccccc23)[C@@H](c2c(F)cc(N3CCC(N4CCC(CN5Cc6cc7c(cc6C5)C(=O)N(C5CCC(=O)NC5=O)C7=O)CC4)CC3)cc2F)N1CC(F)F` (stereo partly drawn) [E 118, 6-((1′-(4-((1R,3R)-2-(2,2-difluoroethyl)-3-methyl-2,3,4,9-tetrahydro-1H-pyrido[3,4-b]indol-1-yl)-3,5-difluorophenyl)-[1,4′-bipiperidin]-4-yl)methyl)-2-(2,6-dioxopiperidin-3-yl)-6,7-dihydropyrrolo[3,4-f]isoindole-1,3(2H,5H)-dione], the DC50 was greater than 100 nM.
On the same count and under the same terms, with `CN(C1CCN(c2ccc([C@@H]3c4ccc(O)cc4CC[C@@H]3c3ccccc3)cc2)CC1)N1CCC(C(=O)N2Cc3cc4c(cc3C2)C(=O)N(C2CCC(=O)NC2=O)C4)CC1` (mixture of isomers) [E 288, 3-(6-(1-((1-(4-((1R,2S)-6-hydroxy-2-phenyl-1,2,3,4-tetrahydronaphthalen-1-yl)phenyl)piperidin-4-yl)(methyl)amino)piperidine-4-carbonyl)-1-oxo-3,5,6,7-tetrahydropyrrolo[3,4-f]isoindol-2(1H)-yl)piperidine-2,6-dione] the figure was 10 to 100 nM.
On the same count and under the same terms, the figure for `O=C1CCC(N2C(=O)c3cc4c(cc3C2=O)CN(C2CC(C(=O)N3CCCC(Oc5ccc([C@@H]6c7ccc(O)cc7CC[C@@H]6c6ccccc6)cc5)C3)C2)C4)C(=O)N1` (mixture of isomers) [E 22, Rac-2-(2,6-dioxopiperidin-3-yl)-6-(3-(3-(4-((1R,2S)-6-hydroxy-2-phenyl-1,2,3,4-tetrahydronaphthalen-1-yl)phenoxy)piperidine-1-carbonyl)cyclobutyl)-6,7-dihydropyrrolo[3,4-f]isoindole-1,3(2H,5H)-dione] is greater than 100 nM; for `C[C@@H]1Cc2c([nH]c3ccccc23)[C@@H](c2c(F)cc(N3CCC4(CCN(CC(=O)N5Cc6cc7c(cc6C5)C(=O)N(C5CCC(=O)NC5=O)C7=O)CC4)C3)cc2F)N1CC(F)F` (stereo partly drawn) [E 107, 6-(2-(2-(4-((1R,3R)-2-(2,2-difluoroethyl)-3-methyl-2,3,4,9-tetrahydro-1H-pyrido[3,4-b]indol-1-yl)-3,5-difluorophenyl)-2,8-diazaspiro[4.5]decan-8-yl)acetyl)-2-(2,6-dioxopiperidin-3-yl)-6,7-dihydropyrrolo[3,4-f]isoindole-1,3(2H,5H)-dione] it is less than 10 nM; for `O=C1CCC(N2C(=O)c3cc4c(cc3C2=O)CN(CC2CCC(N3CCN(c5ccc([C@@H]6c7ccc(O)cc7CC[C@@H]6c6ccccc6)cc5)CC3)CC2)C4)C(=O)N1` (stereo partly drawn) [E 299, 2-(2,6-dioxopiperidin-3-yl)-6-((4-(4-(4-((1R,2S)-6-hydroxy-2-phenyl-1,2,3,4-tetrahydronaphthalen-1-yl)phenyl)piperazin-1-yl)cyclohexyl)methyl)-6,7-dihydropyrrolo[3,4-f]isoindole-1,3(2H,5H)-dione] it is 10 to 100 nM.
For the molecule `O=C1CCC(N2C(=O)c3cc4c(cc3C2=O)CN(CC2CN(CC3CCN(c5ccc([C@@H]6c7ccc(O)cc7CC[C@@H]6c6ccccc6)cc5)CC3)C2)C4)C(=O)N1` (stereo partly drawn) [E 218, 2-(2,6-dioxopiperidin-3-yl)-6-((1-((1-(4-((1R,2S)-6-hydroxy-2-phenyl-1,2,3,4-tetrahydronaphthalen-1-yl)phenyl)piperidin-4-yl)methyl)azetidin-3-yl)methyl)-6,7-dihydropyrrolo[3,4-f]isoindole-1,3(2H,5H)-dione], the DC50 is greater than 100 nM.
On to `O=C1CCC(N2C(=O)c3cc4c(cc3C2=O)CN(C(=O)CN2CCC3(CC2)CCN(c2ccc([C@@H]5c6ccc(O)cc6CC[C@@H]5c5ccc(F)cc5)cc2)C3)C4)C(=O)N1` (mixture of isomers) [E 152, Rac-2-(2,6-dioxopiperidin-3-yl)-6-(2-(2-(4-((1R,2S)-2-(4-fluorophenyl)-6-hydroxy-1,2,3,4-tetrahydronaphthalen-1-yl)phenyl)-2,8-diazaspiro[4.5]decan-8-yl)acetyl)-6,7-dihydropyrrolo[3,4-f]isoindole-1,3(2H,5H)-dione], for which the DC50 is greater than 100 nM.
In the case of `O=C1CCC(N2Cc3cc4c(cc3C2=O)CN(C(=O)[C@H]2CC[C@H](N3CC(Nc5ccc([C@@H]6c7ccc(O)cc7CC[C@@H]6c6ccccc6)cc5)C3)CC2)C4)C(=O)N1` (single isomer, unassigned) [E 360], the DC50 is less than 10 nM.

The experiment is the same for the next values; noted with them: compounds 16 hours, Table A does not say whether T47D or MCF7, read-out: Potency (DC50).
As for `O=C1CCC(N2C(=O)c3cc4c(cc3C2=O)CN(CC(=O)N2CCC3(CC2)CCN(c2ccc([C@@H]5c6ccc(-c7cn[nH]c7)cc6CC[C@@H]5c5ccccc5)cc2)CC3)C4)C(=O)N1` (stereo partly drawn) [E 510, 2-(2,6-dioxopiperidin-3-yl)-6-(2-oxo-2-(9-(4-((1R,2S)-2-phenyl-6-(1H-pyrazol-4-yl)-1,2,3,4-tetrahydronaphthalen-1-yl)phenyl)-3,9-diazaspiro[5.5]undecan-3-yl)ethyl)-6,7-dihydropyrrolo[3,4-f]isoindole-1,3(2H,5H)-dione], the DC50 was greater than 100 nM.
Same read-out and setting: the figure for `C[C@@H]1Cc2c([nH]c3ccccc23)[C@@H](c2ccc(C3=CCC4(CC3)CCN(C(=O)CN3Cc5cc6c(cc5C3)C(=O)N(C3CCC(=O)NC3=O)C6=O)CC4)cc2)N1CC(F)F` (stereo partly drawn) [E 478, 6-(2-(9-(4-((1R,3R)-2-(2,2-difluoroethyl)-3-methyl-2,3,4,9-tetrahydro-1H-pyrido[3,4-b]indol-1-yl)phenyl)-3-azaspiro[5.5]undec-8-en-3-yl)-2-oxoethyl)-2-(2,6-dioxopiperidin-3-yl)-6,7-dihydropyrrolo[3,4-f]isoindole-1,3(2H,5H)-dione] is greater than 100 nM; for `C[C@@H]1Cc2c([nH]c3ccccc23)[C@@H](c2c(F)cc(C3=CCC4(CC3)CCN(C(=O)CN3Cc5cc6c(cc5C3)C(=O)N(C3CCC(=O)NC3=O)C6=O)CC4)cc2F)N1CC(F)F` (stereo partly drawn) [E 476, 6-(2-(9-(4-((1R,3R)-2-(2,2-difluoroethyl)-3-methyl-2,3,4,9-tetrahydro-1H-pyrido[3,4-b]indol-1-yl)-3,5-difluorophenyl)-3-azaspiro[5.5]undec-8-en-3-yl)-2-oxoethyl)-2-(2,6-dioxopiperidin-3-yl)-6,7-dihydropyrrolo[3,4-f]isoindole-1,3(2H,5H)-dione] it is 10 to 100 nM.
For the molecule `Cn1cc(-c2ccc3c(c2)CC[C@H](c2ccccc2)[C@@H]3c2ccc(N3CCC4(CCN(C(=O)CN5Cc6cc7c(cc6C5)C(=O)N(C5CCC(=O)NC5=O)C7=O)CC4)CC3)cc2)cn1` (stereo partly drawn) [E 509, 2-(2,6-dioxopiperidin-3-yl)-6-(2-(9-(4-((1R,2S)-6-(1-methyl-1H-pyrazol-4-yl)-2-phenyl-1,2,3,4-tetrahydronaphthalen-1-yl)phenyl)-3,9-diazaspiro[5.5]undecan-3-yl)-2-oxoethyl)-6,7-dihydropyrrolo[3,4-f]isoindole-1,3(2H,5H)-dione], the DC50 was greater than 100 nM.
Still for that read-out and setting: the figure for `O=C1CCC(N2C(=O)c3cc4c(cc3C2=O)CN(CC(=O)N2CCC(Oc3ccc([C@@H]5c6ccc(O)cc6CC[C@@H]5c5ccccc5)cc3)CC2)C4)C(=O)N1` (stereo partly drawn) [E 489, 2-(2,6-dioxopiperidin-3-yl)-6-(2-(4-(4-((1R,2S)-6-hydroxy-2-phenyl-1,2,3,4-tetrahydronaphthalen-1-yl)phenoxy)piperidin-1-yl)-2-oxoethyl)-6,7-dihydropyrrolo[3,4-f]isoindole-1,3(2H,5H)-dione] is 10 to 100 nM; for `COc1cc(C2CCC(C(=O)N3CCC(N4Cc5cc6c(cc5C4)C(=O)N(C4CCC(=O)NC4=O)C6=O)CC3)CC2)cnc1[C@@H]1c2[nH]c3ccccc3c2C[C@@H](C)N1CC(F)F` (stereo partly drawn) [E 405, 6-(1-(4-(6-((1S,3R)-2-(2,2-difluoroethyl)-3-methyl-2,3,4,9-tetrahydro-1H-pyrido[3,4-b]indol-1-yl)-5-methoxypyridin-3-yl)cyclohexane-1-carbonyl)piperidin-4-yl)-2-(2,6-dioxopiperidin-3-yl)-6,7-dihydropyrrolo[3,4-f]isoindole-1,3(2H,5H)-dione] it is greater than 100 nM.
